“Also recorded” adds a separate entry of the source.
Tests used:
Gαi-type G protein [1] = assay: Inhibition of forskolin-stimulated cAMP accumulation in BPH-1 cells; type: cell-based, human; settings: for FSK-stimulated intracellular cAMP accumulation after ligand pre-exposure: 100 nM, pre-exposure 10, 30, 60 minutes; for effect of PTX on ligand-mediated inhibition of FSK-stimulated cAMP accumulation: 60 minute pre-exposure, PTX 200 ng/ml 16 h
Excerpt: (§1) In both BPH-1 and JEG-3 cells GnRH and Ant 135-25 can antagonize forskolin (FSK) stimulated intracellular cAMP accumulation. Panels a and b respectively depict the effects of FSK, GnRH I and Ant 135-25 upon intracellular levels of cAMP in BPH-1 and JEG-3 cells measured using a calorimetric Biomol cAMP assay kit. […] Each histogram in panels a to d depicts the mean±s.e. mean of three to four experimental replicates of the cAMP accumulation assay.
(§2) Thus we noted that when cyclic adenosine monophosphate levels (cAMP) were measured using a commercially available […] assay system (Biomol) the ability of forskolin (1 μM in JEG-3 and 3 μM in BPH-1, sufficient to give a 50% Rmax response in each case) was blunted with extended cellular pre-treatment times (10 to 60 minutes) with either 100 nM GnRH I or Ant 135-25 (FIG. 9, panel a-BPH, panel b-JEG). […] Therefore it appears that both ligands can efficiently activate the adenylate cyclase inhibitory activity of Gαi in both cell models tested.

Gαi-type G protein [2] = assay: Inhibition of forskolin-stimulated cAMP accumulation in JEG-3 cells; type: cell-based, human; settings: for FSK-stimulated intracellular cAMP accumulation after ligand pre-exposure: 100 nM, pre-exposure 10, 30, 60 minutes; for effect of PTX on ligand-mediated inhibition of FSK-stimulated cAMP accumulation: 60 minute pre-exposure, PTX 200 ng/ml 16 h
Excerpt: as §1, §2

Type I GnRHR = assay: Binding affinity for Type I GnRHR (data not shown)
Type II GnRHR = target: T1, Type II GnRHR (Callithrix jacchus, UniProt Q95MG6); assay: Binding affinity for Type II GnRHR (data not shown)
T1 sequence (Q95MG6 1-380): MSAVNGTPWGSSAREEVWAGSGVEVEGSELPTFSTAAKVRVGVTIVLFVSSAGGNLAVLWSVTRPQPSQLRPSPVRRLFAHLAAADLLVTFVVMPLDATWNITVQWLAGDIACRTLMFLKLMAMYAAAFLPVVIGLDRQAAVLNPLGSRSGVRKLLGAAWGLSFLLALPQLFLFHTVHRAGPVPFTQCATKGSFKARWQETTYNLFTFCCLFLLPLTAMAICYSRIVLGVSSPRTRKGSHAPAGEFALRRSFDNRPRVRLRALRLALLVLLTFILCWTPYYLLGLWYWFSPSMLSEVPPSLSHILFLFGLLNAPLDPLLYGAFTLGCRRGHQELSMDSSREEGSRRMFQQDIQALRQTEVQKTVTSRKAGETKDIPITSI

[3] = test system: Type II GnRHRs cloned from several species; settings: Ott et al (2002); cited from earlier work
[4] = test system: caspase 3 and procaspase 3; assay: Caspase 3 / procaspase 3 immunoblot of JEG-3 whole cell lysates; type: cell-based, human; settings: JEG-3 cells, 100 nM continuously, time course
Procedure: (§3) All twelve panels depict either phase contrast (1, 4, 7, 10), confocal laser microscope (2, 5, 8, 11) or phase contrast/confocal merged images (3, 6, 9, 12). Panels 1 to 3 depict untreated control JEG-3 cells for cells in panels 4 to 6 which have been treated with GnRH I (100 nM) for 24 h. All cells have been exposed while live to an annexin V recombinant protein conjugated to the FITC fluorophore. The annexin V will bind specifically only to phosphatidlyserine (PS) lipids usually only expressed on the intracellular side of the plasma membrane lipid bilayer. An early sign of apoptosis is the translocation of these PS lipids from the intracellular side of the membrane to the outer aspect of the bilayer. […] The cellular levels of caspase 3 and procaspase 3 were assessed by specific immunoblotting of JEG-3 or BPH-1 whole cell (w-c) lysates from cells stimulated continuously with GnRH I for the times depicted.
(§4) Thus we have shown that upon continuous GnRH ligand stimulation of either JEG-3 or BPH-1 there is a retardation of cell growth, however we were interested as to whether there was any genuine induction of cellular apoptosis recently reported to occur in several tumour cell lines (Soon et al (2002) J. Clin. Endocrinol. Metab. 87, 4580-4586). […] Initially we measured the effects of GnRH stimulation upon the ultrastructural integrity of the cells plasma membrane. […]

[5] = test system: caspase 3 and procaspase 3; assay: Caspase 3 / procaspase 3 immunoblot of BPH-1 whole cell lysates; type: cell-based, human; settings: BPH-1 cells, continuous stimulation, time course
Procedure: as §3, §4

| binding affinity for Type I GnRHR (Type I GnRHR) | binding affinity for Type II GnRHR (Type II GnRHR) | Substance | FSK-stimulated intracellular cAMP accumulation after ligand pre-exposure (Gαi-type G protein [1]) | effect of PTX on ligand-mediated inhibition of FSK-stimulated cAMP accumulation (Gαi-type G protein [1]) | FSK-stimulated intracellular cAMP accumulation after ligand pre-exposure (Gαi-type G protein [2]) | effect of PTX on ligand-mediated inhibition of FSK-stimulated cAMP accumulation (Gαi-type G protein [2]) | partial agonistic activity upon Type II GnRHRs cloned from several species [3] | cellular level of cleaved (active) caspase-3 [4] | cellular level of pro-caspase 3 [4] | cellular levels of pro-caspase 3 and cleaved caspase-3 [5] |
| --- | --- | --- | --- | --- | --- | --- | --- | --- | --- | --- |
| high binding affinity | high binding affinity | Ac-D-Nal(2)-D-4-ClPhe-D-Pal-Ser-1-MePal-D-IsopropylLys-Leu-IsopropylLys-Pro-D-AlaNH2 [Ant 135-25] | significantly reduced; also recorded: blunted | can be specifically inhibited with a 16 h pre-incubation of the cells with 200 ng/ml of PTX; also recorded: attenuated by a 16 h pre-treatment with 200 ng/ml PTX | significantly reduced; also recorded: blunted | can be specifically inhibited with a 16 h pre-incubation of the cells with 200 ng/ml of PTX; also recorded: attenuated by a 16 h pre-treatment with 200 ng/ml PTX | – | – | – | – |
| – | – | Ac-D-Nal(2)-D-4-ClPhe-D-Pal-Ser-Ile-D-IsopropylLys-Leu-IsopropylLys-Pro-D -AlaNH2 [Ant 135-18] | – | – | – | – | high degree of partial agonistic activity | – | – | – |
| – | – | GnRH I: Gonadotropin-Releasing Hormone, a decapeptide; the original form of GnRH, re-named GnRH I | significantly reduced; also recorded: blunted | can be specifically inhibited with a 16 h pre-incubation of the cells with 200 ng/ml of PTX; also recorded: attenuated by a 16 h pre-treatment with 200 ng/ml PTX | significantly reduced; also recorded: blunted | can be specifically inhibited with a 16 h pre-incubation of the cells with 200 ng/ml of PTX; also recorded: attenuated by a 16 h pre-treatment with 200 ng/ml PTX | – | enhanced expression of the pro-apoptotic proteases cleaved-caspase 3 and procaspase 3; also recorded: only significantly evident between 48-72 h | enhanced expression of the pro-apoptotic proteases cleaved-caspase 3 and procaspase 3; also recorded: significant elevation in the cellular levels of pro-caspase 3 evident from 24-48 h | enhanced expression of the pro-apoptotic proteases cleaved-caspase 3 and procaspase 3; also recorded: more rapid onset on the generation of cleaved caspase-3 |
